Test results from ChEMBL document CHEMBL1201862, “PubChem BioAssay data set” (2004).
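Method: 48-hour compound exposure of cells in 96-well plates, five concentrations, linear interpolation of endpoints. Here, GI50 denotes the concentration required for 50% inhibition of growth.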 Activity calls are given as the source filed them. Rule as the data show it: active = GI50 up to about 1.1 µM and inactive = higher.

Tests used:
Assay in all cases: NCI tumour cell line growth inhibition, 48 h
786-0 = test system: 786-0
A498 = test system: A498
A549 = test system: A549
ACHN = test system: ACHN
BT-549 = test system: BT-549
CAKI-1 = test system: CAKI-1
CCRF-CEM = test system: CCRF-CEM
COLO 205 = test system: COLO 205
DLD-1 = test system: DLD-1
DMS-114 = test system: DMS-114
DMS-273 = test system: DMS-273
DU-145 = test system: DU-145
EKVX = test system: EKVX
HCC 2998 = test system: HCC 2998
HCT-116 = test system: HCT-116
HCT-15 = test system: HCT-15
HL-60 = test system: HL-60
HOP-18 = test system: HOP-18
HOP-62 = test system: HOP-62
HOP-92 = test system: HOP-92
HT-29 = test system: HT-29
Hs-578T = test system: Hs-578T
IGROV-1 = test system: IGROV-1
K562 = test system: K562
KM-20L2 = test system: KM-20L2
KM12 = test system: KM12
LOX IMVI = test system: LOX IMVI
LXFL 529 = test system: LXFL 529
M14 = test system: M14
M19-MEL = test system: M19-MEL
MCF7 = test system: MCF7
MDA-MB-231 = test system: MDA-MB-231
MDA-MB-435 = test system: MDA-MB-435
MDA-N = test system: MDA-N
MOLT-4 = test system: MOLT-4
Malme-3M = test system: Malme-3M
NCI-H226 = test system: NCI-H226
NCI-H23 = test system: NCI-H23
NCI-H460 = test system: NCI-H460
NCI-H522 = test system: NCI-H522
NCI/ADR-RES = test system: NCI/ADR-RES
OVCAR-3 = test system: OVCAR-3
OVCAR-4 = test system: OVCAR-4
OVCAR-5 = test system: OVCAR-5
OVCAR-8 = test system: OVCAR-8
PC-3 = test system: PC-3
RPMI-8226 = test system: RPMI-8226
RXF 393 = test system: RXF 393
RXF 631 = test system: RXF 631
SF-268 = test system: SF-268
SF-295 = test system: SF-295
SF-539 = test system: SF-539
SK-MEL-28 = test system: SK-MEL-28
SK-MEL-2 = test system: SK-MEL-2
SK-MEL-5 = test system: SK-MEL-5
SK-OV-3 = test system: SK-OV-3
SN12C = test system: SN12C
SNB-19 = test system: SNB-19
SNB-75 = test system: SNB-75
SNB-78 = test system: SNB-78
SR = test system: SR
SW-620 = test system: SW-620
TK-10 = test system: TK-10
U-251 = test system: U-251
UACC-257 = test system: UACC-257
UACC-62 = test system: UACC-62
UO-31 = test system: UO-31
XF498 = test system: XF498

## CCCC(O)[C@@]1(CC)CC(C)C(O)(C2(C)C[C@H](C)[C@@H](C(CC)C(=O)C(C)[C@@H](O)[C@H](C)C3OC(O)(C(CC)C(=O)O)[C@@H](C)C(O)C3CC)O2)O1 (stereo partly specified)
786-0
  GI50: 0.414 µM (active)
A498
  GI50: 0.412 µM (active)
A549
  GI50: 0.123 µM (active)
ACHN
  GI50: 0.521 µM (active)
BT-549
  GI50: 0.0512 µM (active)
CAKI-1
  GI50: 0.486 µM (active)
CCRF-CEM
  GI50: 0.0324 µM (active)
COLO 205
  GI50: 0.123 µM (active)
DLD-1
  GI50: 0.841 µM (active)
DMS-114
  GI50: 0.0279 µM (active)
DMS-273
  GI50: 0.29 µM (active)
DU-145
  GI50: 0.0885 µM (active)
EKVX
  GI50: 0.395 µM (active)
HCC 2998
  GI50: 0.0897 µM (active)
HCT-116
  GI50: 0.187 µM (active)
HCT-15
  GI50: 1.16 µM
HL-60
  GI50: 0.0228 µM (active)
HOP-18
  GI50: 8.59 µM (inactive)
HOP-62
  GI50: 0.369 µM (active)
HOP-92
  GI50: 0.3 µM (active)
HT-29
  GI50: 0.557 µM (active)
Hs-578T
  GI50: 0.267 µM (active)
IGROV-1
  GI50: 1.24 µM (inactive)
K562
  GI50: 0.0955 µM (active)
KM-20L2
  GI50: 0.276 µM (active)
KM12
  GI50: 0.451 µM (active)
LOX IMVI
  GI50: 0.19 µM (active)
LXFL 529
  GI50: 0.594 µM (active)
M14
  GI50: 0.557 µM (active)
M19-MEL
  GI50: 0.643 µM (active)
MCF7
  GI50: 0.461 µM (active)
MDA-MB-231
  GI50: 0.492 µM (active)
MDA-MB-435
  GI50: 0.151 µM (active)
MDA-N
  GI50: 0.414 µM (active)
MOLT-4
  GI50: 0.449 µM (active)
Malme-3M
  GI50: 0.0982 µM (active)
NCI-H226
  GI50: 1.1 µM (active)
NCI-H23
  GI50: 0.129 µM (active)
NCI-H460
  GI50: 0.191 µM (active)
NCI-H522
  GI50: 0.0211 µM (active)
NCI/ADR-RES
  GI50: 0.0792 µM (active)
OVCAR-3
  GI50: 0.0733 µM (active)
OVCAR-4
  GI50: 0.594 µM (active)
OVCAR-5
  GI50: 1.51 µM (inactive)
OVCAR-8
  GI50: 0.444 µM (active)
PC-3
  GI50: 0.0723 µM (active)
RPMI-8226
  GI50: 0.0989 µM (active)
RXF 393
  GI50: 0.0863 µM (active)
RXF 631
  GI50: < 0.0333 µM (active)
SF-268
  GI50: 0.284 µM (active)
SF-295
  GI50: 0.753 µM (active)
SF-539
  GI50: 0.056 µM (active)
SK-MEL-28
  GI50: 0.49 µM (active)
SK-MEL-2
  GI50: 0.531 µM (active)
SK-MEL-5
  GI50: 0.219 µM (active)
SK-OV-3
  GI50: 2.15 µM (inactive)
SN12C
  GI50: 0.12 µM (active)
SNB-19
  GI50: 0.279 µM (active)
SNB-75
  GI50: 0.0611 µM (active)
SNB-78
  GI50: 2.76 µM (inactive)
SR
  GI50: < 0.01 µM (active)
SW-620
  GI50: 0.776 µM (active)
TK-10
  GI50: 0.527 µM (active)
U-251
  GI50: 0.184 µM (active)
UACC-257
  GI50: 0.138 µM (active)
UACC-62
  GI50: 0.923 µM (active)
UO-31
  GI50: 1.01 µM (active)
XF498
  GI50: 1.19 µM (inactive)

## CC#N.O[C@@H]1CCCC[C@@H]1O.O[C@@H]1CCCC[C@@H]1O.[TeH2]
786-0
  GI50: 34.1 µM (inactive)
A498
  GI50: 30.4 µM (inactive)
A549
  GI50: 45.8 µM (inactive)
ACHN
  GI50: 33.2 µM (inactive)
CAKI-1
  GI50: > 100 µM (inactive)
CCRF-CEM
  GI50: 11.6 µM (inactive)
COLO 205
  GI50: 84.3 µM (inactive)
DLD-1
  GI50: 22.7 µM (inactive)
DMS-114
  GI50: 24.4 µM (inactive)
DMS-273
  GI50: 19.6 µM (inactive)
EKVX
  GI50: > 100 µM (inactive)
HCC 2998
  GI50: > 100 µM (inactive)
HCT-116
  GI50: 15.4 µM (inactive)
HCT-15
  GI50: 18.8 µM
HL-60
  GI50: 15.4 µM (inactive)
HOP-18
  GI50: 27.5 µM (inactive)
HOP-62
  GI50: 41.7 µM (inactive)
HOP-92
  GI50: 26.1 µM (inactive)
HT-29
  GI50: 33.4 µM (inactive)
IGROV-1
  GI50: 26.9 µM (inactive)
K562
  GI50: 18.7 µM (inactive)
KM-20L2
  GI50: 65.5 µM (inactive)
KM12
  GI50: 50.8 µM (inactive)
LOX IMVI
  GI50: 10.6 µM (inactive)
LXFL 529
  GI50: 63.7 µM (inactive)
M14
  GI50: > 100 µM (inactive)
M19-MEL
  GI50: 25.1 µM (inactive)
MOLT-4
  GI50: 13.8 µM (inactive)
Malme-3M
  GI50: > 100 µM (inactive)
NCI-H226
  GI50: 40.6 µM (inactive)
NCI-H23
  GI50: 21.2 µM (inactive)
NCI-H460
  GI50: 3.72 µM (inactive)
NCI-H522
  GI50: 37.3 µM (inactive)
OVCAR-3
  GI50: 31.8 µM (inactive)
OVCAR-4
  GI50: 31.8 µM (inactive)
OVCAR-5
  GI50: 16.3 µM (inactive)
OVCAR-8
  GI50: 21.8 µM (inactive)
RPMI-8226
  GI50: 37.2 µM (inactive)
RXF 393
  GI50: 72.3 µM (inactive)
RXF 631
  GI50: 18.7 µM (inactive)
SF-268
  GI50: 69.2 µM (inactive)
SF-295
  GI50: 17.3 µM (inactive)
SF-539
  GI50: > 100 µM (inactive)
SK-MEL-28
  GI50: 72.3 µM (inactive)
SK-MEL-2
  GI50: 74.3 µM (inactive)
SK-MEL-5
  GI50: 40.6 µM (inactive)
SK-OV-3
  GI50: 77.8 µM (inactive)
SN12C
  GI50: 24.2 µM (inactive)
SNB-19
  GI50: 33.1 µM (inactive)
SNB-75
  GI50: > 100 µM (inactive)
SNB-78
  GI50: > 100 µM (inactive)
SR
  GI50: 21.1 µM (inactive)
SW-620
  GI50: 18.6 µM (inactive)
TK-10
  GI50: > 100 µM (inactive)
U-251
  GI50: 12.9 µM (inactive)
UACC-257
  GI50: 54.3 µM (inactive)
UACC-62
  GI50: > 100 µM (inactive)
UO-31
  GI50: 57.1 µM (inactive)
XF498
  GI50: > 100 µM (inactive)

## Cc1ccccc1/N=C/c1ccc(N(CCC#N)S(=O)(=O)c2ccccc2)cc1
786-0
  GI50: > 100 µM (inactive)
A498
  GI50: > 100 µM (inactive)
A549
  GI50: > 100 µM (inactive)
ACHN
  GI50: > 100 µM (inactive)
CAKI-1
  GI50: > 100 µM (inactive)
CCRF-CEM
  GI50: > 100 µM (inactive)
COLO 205
  GI50: > 100 µM (inactive)
DLD-1
  GI50: > 100 µM (inactive)
DMS-114
  GI50: > 100 µM (inactive)
DMS-273
  GI50: > 100 µM (inactive)
EKVX
  GI50: > 100 µM (inactive)
HCC 2998
  GI50: > 100 µM (inactive)
HCT-116
  GI50: > 100 µM (inactive)
HCT-15
  GI50: > 100 µM
HL-60
  GI50: 32.4 µM (inactive)
HOP-18
  GI50: > 100 µM (inactive)
HOP-62
  GI50: > 100 µM (inactive)
HOP-92
  GI50: > 100 µM (inactive)
HT-29
  GI50: > 100 µM (inactive)
IGROV-1
  GI50: > 100 µM (inactive)
K562
  GI50: > 100 µM (inactive)
KM-20L2
  GI50: > 100 µM (inactive)
KM12
  GI50: > 100 µM (inactive)
LOX IMVI
  GI50: > 100 µM (inactive)
LXFL 529
  GI50: > 100 µM (inactive)
M14
  GI50: > 100 µM (inactive)
M19-MEL
  GI50: > 100 µM (inactive)
MOLT-4
  GI50: > 100 µM (inactive)
Malme-3M
  GI50: > 100 µM (inactive)
NCI-H226
  GI50: > 100 µM (inactive)
NCI-H23
  GI50: > 100 µM (inactive)
NCI-H460
  GI50: > 100 µM (inactive)
NCI-H522
  GI50: 70.1 µM (inactive)
OVCAR-3
  GI50: > 100 µM (inactive)
OVCAR-4
  GI50: > 100 µM (inactive)
OVCAR-5
  GI50: > 100 µM (inactive)
OVCAR-8
  GI50: > 100 µM (inactive)
RPMI-8226
  GI50: > 100 µM (inactive)
RXF 393
  GI50: > 100 µM (inactive)
RXF 631
  GI50: > 100 µM (inactive)
SF-268
  GI50: > 100 µM (inactive)
SF-295
  GI50: > 100 µM (inactive)
SF-539
  GI50: > 100 µM (inactive)
SK-MEL-28
  GI50: > 100 µM (inactive)
SK-MEL-2
  GI50: > 100 µM (inactive)
SK-MEL-5
  GI50: > 100 µM (inactive)
SK-OV-3
  GI50: > 100 µM (inactive)
SN12C
  GI50: > 100 µM (inactive)
SNB-19
  GI50: > 100 µM (inactive)
SNB-75
  GI50: > 100 µM (inactive)
SNB-78
  GI50: > 100 µM (inactive)
SR
  GI50: > 100 µM (inactive)
SW-620
  GI50: > 100 µM (inactive)
TK-10
  GI50: > 100 µM (inactive)
U-251
  GI50: > 100 µM (inactive)
UACC-257
  GI50: > 100 µM (inactive)
UACC-62
  GI50: > 100 µM (inactive)
UO-31
  GI50: > 100 µM (inactive)
XF498
  GI50: > 100 µM (inactive)
